This test addresses D(1B) dopamine receptor (Homo sapiens) (UniProt P21918). Briefly: dopamine D5 receptor modulation at EC30 dopamine, dose response, selectivity assay for D1 allosteric modulator project, cell-based, HEK293, CRE-luciferase, luminescence (AID 857).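 Also: HEK 293 cells expressing human D5 with a CRE-driven luciferase reporter.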

Active and inactive are the calls of the source.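 The calls were made as follows: active = a full or partial dose-response curve in at least two of three replicate runs; inactive = the rest.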

This is an account of results in PubChem BioAssay AID857 (Vanderbilt High Throughput Screening Facility, 2007).

Chain of D(1B) dopamine receptor (Homo sapiens) (P21918 whole entry, looked up): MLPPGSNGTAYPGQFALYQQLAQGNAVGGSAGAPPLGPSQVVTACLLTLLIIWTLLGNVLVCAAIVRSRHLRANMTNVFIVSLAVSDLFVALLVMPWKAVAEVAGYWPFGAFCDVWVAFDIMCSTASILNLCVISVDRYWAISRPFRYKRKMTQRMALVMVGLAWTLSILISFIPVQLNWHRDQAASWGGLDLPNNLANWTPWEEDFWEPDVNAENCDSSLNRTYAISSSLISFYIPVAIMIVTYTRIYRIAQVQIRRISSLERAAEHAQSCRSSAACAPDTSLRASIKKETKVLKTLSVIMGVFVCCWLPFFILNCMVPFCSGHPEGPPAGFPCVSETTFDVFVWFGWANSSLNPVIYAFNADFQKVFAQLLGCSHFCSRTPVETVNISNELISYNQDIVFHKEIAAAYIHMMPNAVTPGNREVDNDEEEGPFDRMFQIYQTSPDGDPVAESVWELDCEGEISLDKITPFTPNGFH

Take `CCCCNC(=O)c1ccc2nc(-c3ccco3)c(-c3ccco3)nc2c1`: the result was inactive.

Take `CCSc1nc(-c2ccco2)ccc1C#N`: the outcome was inactive.

Turning to `CCn1c(SCc2cccnc2)nc2c1c(=O)n(C)c(=O)n2C`, the outcome was inactive.

Consider `O=C(C1CCC1)N1CCc2cc(S(=O)(=O)NCc3cccnc3)ccc21`, for which the result was inactive.

Consider `Cn1c(=O)c2c(SCc3ccccc3)nc(-c3ccco3)nc2n(C)c1=O`, for which the outcome was inactive.

In the case of `CCc1ccc2oc(=O)cc(CN3CCOCC3)c2c1`, the result was inactive.

`COC(=O)c1ccc(CSc2nc3c(cnn3-c3ccc(F)cc3)c(=O)[nH]2)o1`: the outcome was inactive.

Take `CNc1nc(C)c(C(=O)OCC(=O)OC)s1`: the result was inactive.

Take `CSc1nc2oc3c(c2c2nncn12)CC(C)(C)SC3`: the outcome was inactive.

In the case of `CC(C)Cn1c(=O)c2c(c3ccccc31)OC(C)C(=O)N2` (configuration not stated), the result was inactive.

With `COc1ccc(OC)c(N2C(=O)C(Cl)=C(N3CCCCC3)C2=O)c1`, the result was inactive.

As for `O=C1CSc2ccccc2N1Cc1ccccc1F`, the outcome was inactive.

Consider `Cc1ccc(Cn2c(-n3nc(C)cc3C)nc3c2c(=O)[nH]c(=O)n3C)cc1`, for which the outcome was inactive.

In the case of `N#Cc1nc(-c2ccccc2Cl)oc1N1CCOCC1`, the outcome was inactive.

As to `CCOC(=O)Cc1[nH]nc2c1C(c1cccc(OC)c1OC)C(C#N)=C(N)O2` (configuration not stated), the result was inactive.

Consider `CC(C)OC(=O)CSc1nnc(-c2cnccn2)n1-c1ccccc1`, for which the outcome was inactive.

Turning to `CCOc1cc(C2C(C#N)=C(N)Oc3n[nH]c(-c4ccccc4)c32)ccc1O` (configuration not stated), the outcome was inactive.

`CCC(=O)n1nc(-c2cccnc2)nc1NCc1ccc(OC)cc1`: the result was inactive.

As for `c1ccc(-c2nn3c(-c4ccccc4)nnc3s2)cc1`, the result was inactive.

`COc1ccc(OC)c(C(=O)COC(=O)C2CC3CCCC(C2)C3=O)c1` (configuration not stated): the result was inactive.

As for `Clc1cccc(Nc2c3c(nc4ncnn24)CCC3)c1`, the outcome was inactive.

Turning to `COc1ccc(N2C(=O)C3CCCN3C2c2ccccc2)cc1Cl` (configuration not stated), the outcome was inactive.

`CCOC(=O)c1c(C)c(C(=O)NCc2ccc3c(c2)OCO3)c(C)n1C`: the outcome was inactive.

For `CC(=O)Nc1nc2n(n1)C(c1ccccc1)C=C(c1ccccc1)N2` (configuration not stated), the result was inactive.

Turning to `CCOC(=O)Nc1sc(C(=O)N(CC)CC)c(C)c1C(=O)OCC`, the outcome was inactive.

Regarding `Clc1ccc(-n2nnnc2-c2ccccc2)cc1`, the outcome was inactive.

For the molecule `CCOc1cc(C2CC(=O)NC(SCC)=C2C#N)ccc1O` (configuration not stated), the outcome was inactive.

As for `Cc1cc(SCC(=O)N2CCC(c3noc4ccc(F)cc34)CC2)nc2ccccc12`, the outcome was inactive.

On to `CCSc1nc2c(c(=O)n1Cc1ccccc1)SC(C)C2` (configuration not stated), for which the outcome was inactive.

Regarding `Cc1ccc(Nc2nnc(SCc3cc(=O)n4ccsc4n3)s2)c(C)c1`, the result was inactive.

As to `COC(=O)c1ccc(COc2nc(C)cc(C)c2C#N)o1`, the result was inactive.

`CCc1ccc2[nH]c(=O)c(CN(Cc3nnnn3C3CCCC3)C3CCCCC3)cc2c1`: the result was inactive.

`Fc1ccc(-c2cc(C(F)(F)F)nc(-n3cncn3)n2)cc1`: the result was inactive.

As to `C=CCNc1sc(C(=O)C(C)(C)C)c(N)c1C#N`, the outcome was inactive.

On to `CCC(Sc1nc(=O)cc(N)n1CCc1ccccc1)C(=O)Nc1ccccc1C#N` (configuration not stated), for which the result was inactive.

As for `CC(=O)c1cc(C#N)c(SCc2ccncc2)nc1C`, the outcome was inactive.

On to `NC(=O)COc1ccc(NC(=O)OCc2ccccc2)cc1`, for which the outcome was inactive.

Consider `COc1ccc(OC)c(NC(=O)CSc2nc3ccccc3c(=O)n2CCNC(C)=O)c1`, for which the result was inactive.

`N#CC1=C(N)Oc2n[nH]c(-c3cccs3)c2C1c1ccsc1` (configuration not stated): the result was inactive.

As for `Nc1nc2n(n1)C(c1ccccc1)CC(c1ccc(F)cc1)N2` (configuration not stated), the outcome was inactive.

Turning to `NC1=NC(c2cn(-c3ccccc3)nc2-c2cccs2)n2c(nc3ccccc32)N1` (configuration not stated), the result was inactive.

In the case of `CCc1nn(CCCC(=O)N2CCc3ccccc3C2)c(=O)c2cc3occc3n12`, the result was inactive.

As for `COc1ccccc1NC(=O)CC1Nc2ccccc2NC1=O` (configuration not stated), the result was inactive.

Regarding `COc1ccc(S(=O)(=O)Nc2ccc3c(c2)OCO3)cc1OC`, the outcome was inactive.

As for `Cc1cc(C)n(-c2nc3ccccc3nc2Nc2ccc(CC(=O)O)cc2)n1`, the EC50 (as a rule, the concentration that produces a half-maximal response) was 1.11 µM.

Consider `CCOC(=O)CSc1nc2c(sc(=S)n2Cc2ccco2)c(=O)n1-c1ccccc1`, for which the outcome was inactive.

`Cc1ccc(-n2c(=O)cc(N3CC(C)CC(C)C3)[nH]c2=O)cc1` (configuration not stated): the result was inactive.

Consider `CCCCn1c(=O)c(C(=O)Nc2cnccn2)c(O)c2ccccc21`, for which the outcome was inactive.

As for `CCOC(=O)c1nn(-c2ccc(OC)cc2)c(=O)c2c(N)scc12`, the result was inactive.

Consider `Nc1nc(SCC(=O)OCc2ccccc2)[nH]c(=O)c1NC(=O)c1ccco1`, for which the outcome was inactive.

On to `O=CN1Cc2[nH]c3ccccc3c2N(c2ccc(Cl)cc2)C1=O`, for which the outcome was inactive.

Regarding `CC(C)OC(=O)CSc1nnc(-c2cnccn2)n1-c1ccc(Cl)cc1`, the outcome was inactive.

For `COc1ccc2c(c1)C(=O)N(c1ccccc1OC)C(=O)C2(C)C`, the result was inactive.

With `Cc1ccc(Oc2ccccc2)c(NC=O)c1`, the result was inactive.

On to `COc1ccc(C2CC(c3cc(OC)ccc3OC)n3nnnc3N2)cc1` (configuration not stated), for which the result was inactive.

In the case of `CC1(C)Cc2c(C#N)c(NC3CCCCC3)nc(-c3ccco3)c2CO1`, the outcome was inactive.

For `CC(=O)C1=C(C)NC(SCC(=O)c2ccc(F)cc2)=C(C#N)C1c1ccco1` (configuration not stated), the outcome was inactive.

As for `O=C1C(Cl)=C(NCC2CCCO2)C(=O)N1Cc1ccccc1` (configuration not stated), the result was inactive.

`CCCCSc1nc2c(cnn2-c2ccc(F)cc2)c(=O)[nH]1`: the outcome was inactive.

Take `COc1ccc(OC)c(/C=N/c2oc(-c3ccco3)c(-c3ccco3)c2C#N)c1`: the outcome was inactive.

In the case of `Cc1ccc(-n2c(SCC(=O)OC(C)C)nnc2-c2cnccn2)cc1`, the result was inactive.

Turning to `CCOc1ccccc1C1NC(=O)NC(C)=C1C(=O)OC1CCCCC1` (configuration not stated), the outcome was inactive.

For the molecule `CCOc1ccc(-c2noc(COC)n2)cc1OC`, the outcome was inactive.

Regarding `CCOc1ccc(CC(=O)Nc2c(C(N)=O)oc3ccccc23)cc1OCC`, the outcome was inactive.

For `N#Cc1cn(-c2ccccc2)nc1-c1ccccc1`, the result was inactive.

On to `Cc1nc(-c2ccc(S(=O)(=O)N3CCCCCC3)cc2)cs1`, for which the result was inactive.

On to `N#Cc1ccc(-c2ccco2)nc1SCc1ccccc1`, for which the result was inactive.

Turning to `COc1ccc(S(=O)(=O)N2CCSC2c2ccc(OC)c(OC)c2)cc1` (configuration not stated), the outcome was inactive.

As to `Cn1c(=O)c2c(-c3ccccc3)n(N3CCOCC3)cc2n(C)c1=O`, the result was inactive.

Turning to `CCN=C1SC(C(N)=O)CC(=O)N1CC` (configuration not stated), the result was inactive.

On to `Cn1cccc1C1NC(=O)c2c(sc3c2CCC(C(C)(C)C)C3)N1` (configuration not stated), for which the outcome was inactive.

Consider `c1ccc(COc2nsnc2N2CCOCC2)cc1`, for which the result was inactive.

In the case of `Cc1sc2nc(CN3CCN(S(=O)(=O)c4cccc5nonc45)CC3)[nH]c(=O)c2c1C`, the outcome was inactive.

Regarding `CCC(C)Nc1nc(OC)nc(N(C)C#N)n1` (configuration not stated), the outcome was inactive.

In the case of `NC(=O)c1c(NC(=O)CSc2nnc(-c3ccco3)n2-c2ccccc2)sc2c1CCC2`, the result was inactive.

Consider `OCCNc1ncnc2c1c(-c1ccccc1)c(-c1ccccc1)n2Cc1ccco1`, for which the result was inactive.

On to `CSC1=NCCN1C(=O)Cc1cccs1`, for which the outcome was inactive.

`O=C(OCCCCN1C(=O)c2ccccc2C1=O)c1n[nH]c2ccccc12`: the result was inactive.

With `COc1ccc(-c2cc(=O)oc3c(C)c(O)c(CN(C)C)cc23)cc1`, the result was inactive.

As for `COc1ccc(-c2csc3nc(C)n(-n4cccc4)c(=O)c23)cc1OC`, the result was inactive.

`Cc1cc(C)nc(SCC(=O)N2CCCCC2)n1`: the result was inactive.

For `Cn1c2c(c3ccccc31)CC/C2=N\O`, the outcome was inactive.

With `COc1ccc(CN(Cc2cccnc2)S(=O)(=O)c2ccc(-n3cnnn3)c(C)c2)cc1OC`, the outcome was inactive.

For `COc1ccc(CCNS(=O)(=O)c2ccc3c(c2)OCCO3)cc1OC`, the result was inactive.

For the molecule `N#CCCN1CCN(S(=O)(=O)c2ccc(S(=O)(=O)NC3CCCCC3)cc2)CC1`, the outcome was inactive.

Consider `Cc1ccc(S(=O)(=O)N2CCN(C(=O)COC(=O)c3cc(C)oc3C)CC2)cc1`, for which the outcome was inactive.

Regarding `COc1ccc(-c2coc3cc(O)ccc3c2=O)cc1OC`, the outcome was inactive.

For `Cc1cccc(Cc2c(C)nc3c(C(=O)NCc4ccco4)cnn3c2C)c1`, the result was inactive.

As for `COc1ccc(NC(=O)c2ccc(NS(=O)(=O)c3c(C)noc3C)cc2)cc1OC`, the result was inactive.

For the molecule `O=S(=O)(Nc1cc(Cl)ccc1N1CCCCC1)c1cccs1`, the result was inactive.

As to `CSc1nncc(-c2ccc(F)c(F)c2)n1`, the outcome was inactive.

As to `Cc1ccc(CNc2nc3ccccc3n3nnnc23)cc1`, the outcome was inactive.

Turning to `CC(=O)c1nn(-c2cccc(Cl)c2)cc1C(=O)c1ccco1`, the outcome was inactive.

Consider `CCOC(=O)N1CCC(NC(=O)c2cccc3c2C(=O)N(Cc2cccnc2)C3)CC1`, for which the result was inactive.

As to `NC(=O)NC(=O)Nc1ccccc1Cl`, the outcome was inactive.

On to `CCOC(=O)c1oc2ccc(S(=O)(=O)N3CCOCC3)cc2c1C`, for which the outcome was inactive.

In the case of `CCCCn1c(O)c(C(C)=NCc2ccc(F)cc2)c(=O)[nH]c1=O`, the outcome was inactive.
